The record followed here is paper PMC5855801, “Benzothiophenone Derivatives Targeting Mutant Forms of Estrogen Receptor-α in Hormone-Resistant Breast Cancers” (International Journal of Molecular Sciences, 2018).

Test [1] deals with T1, glucocorticoid receptor (GR) (Homo sapiens, UniProt P04150).
T1 construct: expressed in transfected cells; host or cells: PC3
T1 sequence (P04150 1-777): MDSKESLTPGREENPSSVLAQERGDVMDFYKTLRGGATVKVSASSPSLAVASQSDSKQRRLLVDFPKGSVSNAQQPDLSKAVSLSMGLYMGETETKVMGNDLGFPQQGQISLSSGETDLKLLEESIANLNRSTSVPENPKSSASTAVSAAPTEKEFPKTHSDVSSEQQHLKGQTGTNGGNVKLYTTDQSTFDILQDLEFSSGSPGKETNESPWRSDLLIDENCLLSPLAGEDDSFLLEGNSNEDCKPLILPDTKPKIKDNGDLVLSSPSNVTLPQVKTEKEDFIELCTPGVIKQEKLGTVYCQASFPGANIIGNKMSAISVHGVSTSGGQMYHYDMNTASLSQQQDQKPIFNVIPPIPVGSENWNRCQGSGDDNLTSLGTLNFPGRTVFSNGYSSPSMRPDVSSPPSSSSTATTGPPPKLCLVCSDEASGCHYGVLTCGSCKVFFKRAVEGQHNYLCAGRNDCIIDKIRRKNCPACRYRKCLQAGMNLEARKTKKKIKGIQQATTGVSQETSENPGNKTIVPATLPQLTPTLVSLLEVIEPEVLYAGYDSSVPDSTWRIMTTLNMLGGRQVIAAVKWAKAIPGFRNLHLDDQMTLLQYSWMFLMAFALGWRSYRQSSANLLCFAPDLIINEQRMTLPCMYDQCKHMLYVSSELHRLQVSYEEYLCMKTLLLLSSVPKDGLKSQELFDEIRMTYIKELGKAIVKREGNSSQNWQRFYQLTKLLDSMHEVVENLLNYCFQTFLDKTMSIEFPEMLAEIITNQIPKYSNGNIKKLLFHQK
As to the kind of experiment: Luciferase reporter selectivity assay in PC3 cells, GR. Type of test: cell-based. The note with it: 24 h. Here is the method:
Figure 4 Further activity profile of VPC-16606. (A,B) Chromatin immunoprecipitation (ChIP) analysis of ERα binding to the pS2 enhancer, or the GAPDH promoter, in MCF7 cells. Where indicated, ERα was stimulated with 1 nM E2 or dimethyl sulfoxide (DMSO) alone, and the compound was administered at a 6 μM concentration. Sheared chromatin-protein complexes were precipitated with the ERα antibody, reverse cross-linked and analyzed by quantitative PCR. The results are normalized as fold enrichment over precipitation with a rabbit isotype control IgG antibody for each condition tested. Error bars indicate standard error of the mean (SEM) for 3 independent experiments performed in triplicates. Fold enrichment from the compound tested condition (ERα antibody) was statistically compared against DMSO + E2 with a two-tailed t-test (unpaired) *** indicates p-value <0.001. (C) Specificity of VPC-16606 was evaluated in the luciferase reporter assay. PC3 cells were transfected with plasmids expressing androgen receptor (AR), progesterone receptor (PR) or glucocorticoid receptor (GR) along with their responsive luciferase reporter constructs bearing androgen response element (ARE), progesterone response element (PRE) or glucocorticoid response element (GRE), respectively. […] Y-axis represents relative luminescence (RLU) after normalizing to constitutive renilla reporter. […]
For orientation: A reporter such as luciferase makes a cellular process visible.

Another test relates to ZR75-1 cells. Briefly: Presto Blue cell viability assay, ZR75-1. The test is classed as cell-based, human. The note with it: ZR75-1, 96 h, two-fold dilution starting at 50 µM. Here is the method:
(§1) The Presto Blue cell viability assay was used to assess the growth inhibitory potential of VPC-16606 on ERα^+ T47D, MCF7, ZR75-1 and TamR3 cells. They were treated for 96 h with a two-fold dilution range of the compound starting at 50 µM.
(§2) Cell viability was determined using the Presto Blue cell viability assay (Thermo Fisher Scientific, Waltham, MA, USA). Cells were seeded in clear bottom black-walled 96-well plates at a density of 5 × 10^3 cells/well in 100 μL of their respective media. On the following day, the cells were treated with test compounds (0.001–22.5 μM) in the presence of 1 nM E2 and incubated at 37 °C. After 96 h, 30 μL of Presto Blue reagent was added and incubated for 10 min at 37 °C. The fluorescent signal from viable cells was measured at 590 nm.

In a further test the test system is MCF7 cells. Briefly: Presto Blue cell viability assay, MCF7. The settings on record: MCF7, 96 h, two-fold dilution starting at 50 µM. The test is classed as cell-based, human. As for the experimental part: as §1, §2
A further test has as its target ERβ LBD (Homo sapiens, UniProt Q92731). As to the kind of experiment: TR-FRET coactivator peptide displacement assay with ERβ-LBD. Type of test: biochemical. The note with it: purified ERβ LBD. An excerpt: Given that tamoxifen acts as a pure antagonist of ERβ [34], the effect of VPC-16606 on ERβ and its corresponding implications in breast cancer will also need to be evaluated. Moreover, the role of ERβ in breast cancer biology is not yet clear, with some evidence pointing towards ERβ exerting proliferating effects in the absence of ERα [36].
Supplementary Materials: Benzothiophenone Derivatives Targeting Mutant Forms of Estrogen Receptor-α in Hormone-Resistant Breast Cancers
Figure S1. Effect of VPC-16606 on viability of PC3 cells as measured in the Presto Blue assay. […]
Figure S2. TR-FRET Assay showing displacement of Fluorescein labelled PGC1 α peptide by VPC-16606 upon incubation with ER β-LBD. OHT was used at 1µM. Error bars represent standard deviation for two independent experiments performed in triplicates. […]
On the technique in general: TR-FRET usually uses a lanthanide donor and a delayed reading to cut background.

For test [2], the system named is ERα-dependent genes pS2, PR, Cyclin D1 and CDC2. Briefly: qRT-PCR of ERα-dependent genes in MCF7 cells. The test is classed as cell-based, human. The settings on record: MCF7, 24 h, 1 nM E2. Here is the method: mRNA levels were analyzed after treatment of MCF7 and TamR3 cells for 24 h with the test compounds as described previously. The fold change in expression of the genes was calculated using the 2^−ΔΔCt method with GAPDH as the internal control.
A general note: Real-time PCR tracks product formation cycle by cycle.

Structures are written as SMILES.

Chain of ERβ LBD (Q92731 264-498 limits assumed, species assumed): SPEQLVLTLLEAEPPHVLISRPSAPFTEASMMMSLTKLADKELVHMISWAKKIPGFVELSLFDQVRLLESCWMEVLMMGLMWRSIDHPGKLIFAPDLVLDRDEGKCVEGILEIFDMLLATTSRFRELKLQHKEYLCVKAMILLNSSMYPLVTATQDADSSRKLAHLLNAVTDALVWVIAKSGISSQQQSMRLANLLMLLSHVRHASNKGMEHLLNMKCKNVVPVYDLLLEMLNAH

On to `CC(=O)N(/N=C1\Sc2c(C)cccc2C1=O)c1ccccc1Cl` [VPC-16606], for which the “Effect on GR activity (luciferase)” value in test [1] (50 µM) is on record as “some effect”; in test [1] (doses up to 25 µM) it was “does not affect the activity”. For the same compound, the “Cell growth (Presto Blue viability)” value in the test with ZR75-1 cells and in the test with MCF7 cells was “significantly reduce the growth” in each case. The “Displacement of fluorescein labelled PGC1α peptide from ERβ LBD (TR-FRET)” value on ERβ LBD is “resulted in peptide displacement”. In addition, the “mRNA levels of ERα-dependent genes pS2, PR, Cyclin D1 and CDC2” value in test [2] is “significantly downregulates”.
